# Test results taken from ChEMBL document CHEMBL1148572, “1-((S)-2-aminopropyl)-1H-indazol-6-ol: a potent peripherally acting 5-HT2 receptor agonist with ocular hypotensive activity” (J Med Chem, 2006).
# Columns and labels:
# [1] = biological target: Opioid receptors; mu/kappa/delta (Homo sapiens) (UniProt P41145+P41143+P35372); experiment: Inhibition of non selective binding to opiate receptor at 10 uM; type: protein assay
# [2] = biological target: T1, monoamine oxidase B (MAO-B) (Rattus norvegicus, UniProt P19643); experiment: Inhibition of monoamine oxidase B in rat brain at 100 nM; type: tissue-based
# T1 sequence (P19643 whole entry): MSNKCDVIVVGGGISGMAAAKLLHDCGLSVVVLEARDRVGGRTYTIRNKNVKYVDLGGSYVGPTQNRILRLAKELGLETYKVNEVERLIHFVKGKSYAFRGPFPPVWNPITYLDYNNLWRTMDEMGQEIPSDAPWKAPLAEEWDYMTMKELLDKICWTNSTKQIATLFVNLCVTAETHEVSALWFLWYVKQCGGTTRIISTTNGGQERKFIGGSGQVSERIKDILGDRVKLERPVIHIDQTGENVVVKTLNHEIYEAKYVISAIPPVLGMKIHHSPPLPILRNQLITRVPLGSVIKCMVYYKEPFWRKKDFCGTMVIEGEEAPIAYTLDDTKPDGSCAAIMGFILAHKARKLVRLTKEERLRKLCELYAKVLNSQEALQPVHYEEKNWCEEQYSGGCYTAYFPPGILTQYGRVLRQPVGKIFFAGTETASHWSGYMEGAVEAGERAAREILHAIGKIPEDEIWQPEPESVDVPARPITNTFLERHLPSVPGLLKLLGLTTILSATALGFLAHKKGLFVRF
# [3] = biological target: Voltage-dependent N-type calcium channel subunit alpha-1B (Homo sapiens) (UniProt Q00975); experiment: Inhibitory activity at Calcium channel N type at 100 nM
# Voltage-dependent N-type calcium channel subunit alpha-1B (Homo sapiens), sequence (Q00975 whole entry, looked up): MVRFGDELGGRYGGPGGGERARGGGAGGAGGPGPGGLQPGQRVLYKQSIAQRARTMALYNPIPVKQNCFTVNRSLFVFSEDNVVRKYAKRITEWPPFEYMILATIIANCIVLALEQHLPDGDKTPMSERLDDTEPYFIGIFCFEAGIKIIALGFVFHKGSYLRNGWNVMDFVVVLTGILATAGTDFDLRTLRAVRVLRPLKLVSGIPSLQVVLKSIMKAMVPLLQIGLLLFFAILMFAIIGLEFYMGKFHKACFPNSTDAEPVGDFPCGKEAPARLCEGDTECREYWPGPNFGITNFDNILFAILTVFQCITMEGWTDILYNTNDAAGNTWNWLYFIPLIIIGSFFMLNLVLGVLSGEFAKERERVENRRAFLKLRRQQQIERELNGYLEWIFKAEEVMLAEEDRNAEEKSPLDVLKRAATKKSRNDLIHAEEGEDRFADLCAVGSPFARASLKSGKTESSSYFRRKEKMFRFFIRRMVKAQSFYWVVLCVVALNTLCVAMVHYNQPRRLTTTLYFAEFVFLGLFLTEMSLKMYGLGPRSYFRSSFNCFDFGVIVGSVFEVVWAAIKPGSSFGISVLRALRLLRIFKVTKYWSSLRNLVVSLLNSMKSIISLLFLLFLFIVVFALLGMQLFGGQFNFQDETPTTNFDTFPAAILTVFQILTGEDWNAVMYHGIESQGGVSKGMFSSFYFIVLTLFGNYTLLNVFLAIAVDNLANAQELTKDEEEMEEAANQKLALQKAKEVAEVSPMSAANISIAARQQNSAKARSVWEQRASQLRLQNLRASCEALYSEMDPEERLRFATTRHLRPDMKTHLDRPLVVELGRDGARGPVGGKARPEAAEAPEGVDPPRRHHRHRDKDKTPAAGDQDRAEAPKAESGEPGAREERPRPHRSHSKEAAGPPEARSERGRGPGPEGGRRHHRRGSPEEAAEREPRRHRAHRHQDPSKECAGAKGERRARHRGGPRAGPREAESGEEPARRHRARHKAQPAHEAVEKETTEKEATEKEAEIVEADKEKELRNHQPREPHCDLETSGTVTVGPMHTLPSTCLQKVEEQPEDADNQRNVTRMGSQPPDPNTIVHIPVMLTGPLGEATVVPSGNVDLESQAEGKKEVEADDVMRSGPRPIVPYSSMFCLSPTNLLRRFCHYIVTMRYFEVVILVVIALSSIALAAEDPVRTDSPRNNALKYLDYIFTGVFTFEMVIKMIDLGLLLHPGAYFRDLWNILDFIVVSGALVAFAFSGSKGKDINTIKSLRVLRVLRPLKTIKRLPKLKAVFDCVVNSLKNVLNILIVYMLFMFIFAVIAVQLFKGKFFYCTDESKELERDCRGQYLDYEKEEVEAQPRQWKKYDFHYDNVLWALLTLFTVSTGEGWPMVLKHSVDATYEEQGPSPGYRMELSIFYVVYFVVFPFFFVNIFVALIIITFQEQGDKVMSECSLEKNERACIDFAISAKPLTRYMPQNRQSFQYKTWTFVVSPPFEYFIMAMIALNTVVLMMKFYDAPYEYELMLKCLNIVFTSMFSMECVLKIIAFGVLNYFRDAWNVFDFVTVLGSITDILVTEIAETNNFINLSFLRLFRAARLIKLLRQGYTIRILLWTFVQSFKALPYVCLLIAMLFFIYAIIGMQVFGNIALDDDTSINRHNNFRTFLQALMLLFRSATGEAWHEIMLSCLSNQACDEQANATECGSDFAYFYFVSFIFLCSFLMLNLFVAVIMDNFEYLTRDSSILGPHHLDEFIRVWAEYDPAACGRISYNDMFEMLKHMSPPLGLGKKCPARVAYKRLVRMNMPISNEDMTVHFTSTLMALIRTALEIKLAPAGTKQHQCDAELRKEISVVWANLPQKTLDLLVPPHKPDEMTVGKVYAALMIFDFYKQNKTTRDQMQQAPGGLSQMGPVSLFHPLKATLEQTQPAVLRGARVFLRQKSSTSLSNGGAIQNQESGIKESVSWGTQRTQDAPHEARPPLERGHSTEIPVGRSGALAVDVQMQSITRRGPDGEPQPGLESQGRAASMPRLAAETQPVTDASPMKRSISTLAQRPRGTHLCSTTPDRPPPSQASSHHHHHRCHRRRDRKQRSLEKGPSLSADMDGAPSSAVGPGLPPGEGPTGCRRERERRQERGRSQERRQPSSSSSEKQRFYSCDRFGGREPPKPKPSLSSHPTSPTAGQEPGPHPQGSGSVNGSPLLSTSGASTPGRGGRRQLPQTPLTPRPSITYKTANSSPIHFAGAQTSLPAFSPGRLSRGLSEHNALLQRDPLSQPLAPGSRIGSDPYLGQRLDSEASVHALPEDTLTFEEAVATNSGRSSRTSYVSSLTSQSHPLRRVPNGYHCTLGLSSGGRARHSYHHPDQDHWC
# [4] = biological target: Glutamate [NMDA] receptor (Homo sapiens) (UniProt Q05586+Q12879+Q13224+O15399+O60391+Q14957+Q8TCU5); experiment: Inhibition of MK-801 site of glutamate receptor at 1 nM; type: protein-complex assay
# [5] = biological target: T2, 5-hydroxytryptamine receptor 1A (Homo sapiens) (UniProt P08908); experiment: Inhibition of forskolin activated adenylate cyclase at 10 uM; type: functional
# T2 sequence (whole entry): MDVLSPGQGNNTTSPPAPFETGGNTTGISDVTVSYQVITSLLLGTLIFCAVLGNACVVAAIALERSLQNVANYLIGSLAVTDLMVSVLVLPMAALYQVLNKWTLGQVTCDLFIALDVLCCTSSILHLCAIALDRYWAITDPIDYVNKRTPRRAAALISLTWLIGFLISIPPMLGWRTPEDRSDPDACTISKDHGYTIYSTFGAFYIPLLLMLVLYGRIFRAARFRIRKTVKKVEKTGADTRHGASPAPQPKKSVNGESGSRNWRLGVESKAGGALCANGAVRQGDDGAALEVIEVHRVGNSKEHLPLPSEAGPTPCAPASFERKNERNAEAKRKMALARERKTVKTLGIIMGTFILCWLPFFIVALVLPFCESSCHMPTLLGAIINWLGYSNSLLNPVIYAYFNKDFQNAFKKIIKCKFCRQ
# [6] = biological target: Protein kinase C, PKC; classical/novel (Homo sapiens) (UniProt O94806+P17252+P05129+Q05655+P05771+Q02156+P24723+Q15139+Q04759); experiment: Inhibition of PDBu activated protein kinase C at 100 nM; type: protein assay
# [7] = biological target: Epidermal growth factor receptor (Homo sapiens) (UniProt P00533); experiment: Inhibition of EGFR at 1 nM
# Epidermal growth factor receptor (Homo sapiens), sequence (P00533 whole entry): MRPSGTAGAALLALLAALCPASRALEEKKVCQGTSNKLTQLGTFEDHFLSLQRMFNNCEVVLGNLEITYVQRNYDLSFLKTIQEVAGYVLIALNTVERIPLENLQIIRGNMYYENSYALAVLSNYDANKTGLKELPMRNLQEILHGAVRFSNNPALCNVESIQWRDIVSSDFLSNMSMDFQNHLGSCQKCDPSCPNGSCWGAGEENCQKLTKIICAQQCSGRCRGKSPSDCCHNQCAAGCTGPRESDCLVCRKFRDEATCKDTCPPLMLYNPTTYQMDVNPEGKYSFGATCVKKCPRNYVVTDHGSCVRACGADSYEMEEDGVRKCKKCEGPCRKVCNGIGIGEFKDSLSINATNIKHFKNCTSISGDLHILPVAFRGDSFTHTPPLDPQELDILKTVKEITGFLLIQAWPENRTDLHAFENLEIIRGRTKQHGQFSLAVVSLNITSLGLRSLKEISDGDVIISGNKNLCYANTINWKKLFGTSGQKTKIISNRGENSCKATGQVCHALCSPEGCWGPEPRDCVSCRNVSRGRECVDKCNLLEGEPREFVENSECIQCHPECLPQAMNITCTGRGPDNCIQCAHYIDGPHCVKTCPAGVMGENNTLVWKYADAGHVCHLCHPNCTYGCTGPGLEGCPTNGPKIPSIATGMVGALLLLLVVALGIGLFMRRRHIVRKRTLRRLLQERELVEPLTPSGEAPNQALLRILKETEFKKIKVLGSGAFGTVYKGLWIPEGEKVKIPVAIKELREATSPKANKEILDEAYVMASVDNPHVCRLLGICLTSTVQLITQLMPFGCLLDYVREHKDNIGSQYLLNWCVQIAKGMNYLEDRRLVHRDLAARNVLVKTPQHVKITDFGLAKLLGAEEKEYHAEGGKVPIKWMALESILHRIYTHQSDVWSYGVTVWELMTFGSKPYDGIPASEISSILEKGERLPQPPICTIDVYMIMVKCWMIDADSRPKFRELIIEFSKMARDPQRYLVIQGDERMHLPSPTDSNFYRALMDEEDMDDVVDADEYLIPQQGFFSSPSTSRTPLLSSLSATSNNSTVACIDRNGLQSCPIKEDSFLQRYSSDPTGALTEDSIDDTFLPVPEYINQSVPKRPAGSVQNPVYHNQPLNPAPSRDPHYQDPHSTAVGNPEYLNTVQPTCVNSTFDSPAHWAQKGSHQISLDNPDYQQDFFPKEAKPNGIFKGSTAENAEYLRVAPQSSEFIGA
# [8] = biological target: Alpha-2B adrenergic receptor (Homo sapiens, UniProt P18089); experiment: Activity at adrenergic alpha-2B receptor expressed in opposum kidney OK cell by adenylyl cyclase assay; type: functional, cell-based
# Alpha-2B adrenergic receptor, sequence (P18089 whole entry): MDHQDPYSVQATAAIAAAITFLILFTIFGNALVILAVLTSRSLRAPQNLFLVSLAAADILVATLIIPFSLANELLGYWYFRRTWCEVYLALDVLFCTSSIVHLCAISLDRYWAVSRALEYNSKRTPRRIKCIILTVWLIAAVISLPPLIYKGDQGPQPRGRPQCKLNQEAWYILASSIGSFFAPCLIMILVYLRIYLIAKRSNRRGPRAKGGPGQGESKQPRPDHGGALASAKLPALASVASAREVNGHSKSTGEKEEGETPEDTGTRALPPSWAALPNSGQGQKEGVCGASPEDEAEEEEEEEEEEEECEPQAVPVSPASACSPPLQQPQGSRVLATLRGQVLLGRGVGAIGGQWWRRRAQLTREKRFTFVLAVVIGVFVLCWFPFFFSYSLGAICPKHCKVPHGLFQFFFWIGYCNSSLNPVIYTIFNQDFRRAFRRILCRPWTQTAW
smiles,measurement,setting,value
C[C@H](N)Cn1ncc2ccc(O)cc21,inhibition,[1],63.3%
same,inhibition at 0.1 µM,[2],-20%
same,inhibition,[3],2.01%
same,inhibition,[4],-7.45%
same,inhibition,[5],4.1%
same,inhibition,[6],11.3%
same,inhibition,[7],1.44%
same,EC50,[8],3.05 µM
